According to patent US5240935A, “Substituted 2-azabicyclo[2.2.2]octane derivatives and compositions and method of use thereof” (Sterling Winthrop Inc., priority 1992, dated 1993):
Counter-ions that a name gives are not always drawn. Like-named read-outs stand apart in the source and are kept apart here.

Experiments:
[1] = molecular target: T1, sigma receptors (Cavia porcellus, UniProt Q60492); assay: sigma receptor binding, [^3 H](+)-pentazocine, guinea pig brain membranes; parameters: species or system guinea pig (male Hartley); details: for inhibition at 10 µM: read-out: Percent Inhibition of [^3 H](+)-pentazocine binding; for Ki: mean of at least two separate determinations in triplicate, EBDA/LIGAND
T1 construct: Brain tissue was prepared from male Hartley guinea pigs; from tissue; host or cells: brain membranes of male Hartley guinea pigs (22,000 x g pellet)
T1 sequence (Q60492 whole entry): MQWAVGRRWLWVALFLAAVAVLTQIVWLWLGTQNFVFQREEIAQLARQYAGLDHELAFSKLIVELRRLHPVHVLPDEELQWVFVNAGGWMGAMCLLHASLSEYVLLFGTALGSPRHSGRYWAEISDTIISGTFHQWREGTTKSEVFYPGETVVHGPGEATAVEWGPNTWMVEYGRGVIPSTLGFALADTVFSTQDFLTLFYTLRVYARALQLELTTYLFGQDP
Protocol: Brain tissue was prepared from male Hartley guinea pigs (Hazelton Labs, Denver, Pa.) which were anesthetized with CO2 and sacrificed by decapitation. All animal care and use procedures were in accord with the "Guide for the Care and Use of Laboratory Animals" (NIH Publ. No. 86-23, 1985). Homogenization was performed in 10 volumes (wt/vol) of 0.32M sucrose with a Brinkmann Polytron at setting 5, 30 sec. The homogenate was centrifuged at 900×g for 10 min at 4° C., and the supernatant was collected and centrifuged at 22,000×g for 20 min at 4° C. The pellet was resuspended in 10 volumes of Tris-HCl buffer (50 mM, pH 7.4), incubated at 37° C. for 30 min, and centrifuged at 22,000×g for 20 min at 4° C. Following this, the pellet was resuspended in Tris buffer and frozen in 5-10 mL aliquots corresponding to a tissue concentration of 100 mg/mL, at -70° C. Binding characteristics of the membranes were stable for at least one month when stored at -70° C.
On the day of the assay, membrane aliquots were thawed, resuspended in fresh Tris-HCl buffer and stored on ice until use. Each assay tube contained 100 μL of [^3 H]-(+)-pentazocine at a final concentration of approximately 0.5 nM or 100 μL of [^3 H]-di(2-tolyl)guanidine (DTG) at a final concentration of approximately 4 nM, 100 μL of various concentrations of the compounds of interest, 500 μL of the tissue suspension and 300 μL of buffer to a final assay volume of 1 mL and a final tissue concentration of approximately 8 mg/tube, corresponding to approximately 0.15 mg protein/tube. Non-specific binding was defined by addition of a final concentration of 1 μM haloperidol to blank tubes for [^3 H](+)-pentazocine assay or by addition of a final concentration of 10 μM haloperidol to blank tubes for [^3 H]DTG assay. All tubes were incubated at 37° C. for 150 min in the [^3 H](+)-pentazocine assay or at 25° C. for 90 min in the [^3 H]DTG assay before termination of the reaction by rapid filtration over Whatman GF/B glass fiber filters that were presoaked in a solution of 0.5% polyethylenimine for at least 1 hr prior to use. Filters were washed with three 4 ml volumes of cold Tris-HCl buffer.
Following addition of scintillation cocktail, samples were allowed to equilibrate for at least 4 hr. The amount of bound radioactivity was determined by liquid scintillation spectrometry using a Beckman LS 5000 TA liquid scintillation counter with an efficiency for tritium of approximately 60%. The results are reported as a percent (%) inhibition of binding at 10 μM.
Scatchard parameters and inhibition constants (Ki values) for the binding of test compounds were also calculated using the EBDA/LIGAND program (McPherson, J. Pharmacol. Meth. 1985, 14, 213-228), purchased from Elsevier/Biosoft, Inc The Ki values are expressed as the mean of at least two separate determinations performed in triplicate.

[2] = test system: sigma receptors; assay: sigma receptor binding, [^3 H]di(2-tolyl)guanidine (DTG), guinea pig brain membranes; parameters: species or system guinea pig (male Hartley); details: [^3 H]DTG approx. 4 nM, 25° C., 90 min; for Percent Inhibition of [^3 H]DTG binding: at 10 μM; for Ki: mean of at least two separate determinations in triplicate, EBDA/LIGAND
Protocol: Brain tissue was prepared from male Hartley guinea pigs (Hazelton Labs, Denver, Pa.) which were anesthetized with CO2 and sacrificed by decapitation. […] Homogenization was performed in 10 volumes (wt/vol) of 0.32M sucrose with a Brinkmann Polytron at setting 5, 30 sec. The homogenate was centrifuged at 900×g for 10 min at 4° C., and the supernatant was collected and centrifuged at 22,000×g for 20 min at 4° C. The pellet was resuspended in 10 volumes of Tris-HCl buffer (50 mM, pH 7.4), incubated at 37° C. for 30 min, and centrifuged at 22,000×g for 20 min at 4° C. Following this, the pellet was resuspended in Tris buffer and frozen in 5-10 mL aliquots corresponding to a tissue concentration of 100 mg/mL, at -70° C. Binding characteristics of the membranes were stable for at least one month when stored at -70° C.

[3] = test system: apomorphine-induced climbing; assay: apomorphine-induced climbing assay; format: in vivo, mice (male, Swiss-Webster); details: Mus musculus, ip; test compound i.p.; apomorphine 5.5 mg/kg s.c.; rated 20-30 min post drug; Dunnett's Test P<0.05; read-out: Apomorphine-induced climbing assay MED (minimal effective dose for inhibition)
Protocol: (§1) Representative compounds of the invention were tested in vivo in the apomorphine-induced climbing assay and the apomorphine-induced stereotypy assay using the following procedures.
(§2) Male, Swiss-Webster mice (Taconic Farms, Germantown, New York), weight 20-30 grams, were grouped housed in colony facilities for a minimum of two days prior to testing. The colony facility was maintained on a 12 hour light/dark cycle (light: 0600-1800 hours) with water and Agway Prolab 100 rat chow available ad libitum. Each mouse was given an injection of test compound i.p. followed immediately by a s.c. injection of apomorphine 5.5 mg/kg or vehicle. All drugs were administered in a volume of 10 ml/kg body weight. The mice were then placed in individual cylindrical stainless steel climbing cages; 14.5 cm tall, 12 cm in diameter, with walls consisting of 1/16" O.D. bars spaced 0.8-1.0 cm apart, and were allowed to habituate to this environment for 20 minutes. […] Briefly, a (0) was scored for absence of any stereotypic behavior, infrequent stereotypic movements were scored as (1), a (2) was scored for permanent sniffing and a score of (3) indicated intense and continuous stereotypic behavior. Treatment means for the 10 minute totals were calculated for climbing and stereotypy. […] A minimal effective dose (MED) for inhibition was determined for each parameter based on these analyses.

[4] = test system: apomorphine-induced stereotypy; assay: apomorphine-induced stereotypy assay; format: in vivo, mice (male, Swiss-Webster); details: Mus musculus, ip; test compound i.p.; apomorphine 5.5 mg/kg s.c.; rated 20-30 min post drug; Dunnett's Test P<0.05; read-out: Apomorphine-induced stereotypy assay MED (minimal effective dose for inhibition)
Protocol: as §1, §2

[5] = at 10 μM, [^3 H](+)-pentazocine approx. 0.5 nM, 37° C., 150 min
[6] = [^3 H](+)-pentazocine approx. 0.5 nM, 37° C., 150 min

Row | Structure (SMILES) | inhibition at 10 µM [1, 5] [%] | Ki [1, 6] [µM] | Percent Inhibition of [^3 H]DTG binding [2] [%] | Ki [2] [µM] | inhibition at 10 µM [1] [%] | minimal effective dose [3] [µmol/kg] | minimal effective dose [4] [µmol/kg]
1 | CC(=O)C1CC2C(C(C)C)CC1N(Cc1ccccc1)C2C (stereo not shown) [Example 11b, 1-[3-methyl-8-isopropyl-2-(phenylmethyl)-2-azabicyclo[2.2.2]octan-6-yl]-ethanone] | 77 | 2.62 | 86 | 1.01 | – | – | –
2 | CCOC(=O)C1CC2C(C)NC1CC2C(C)C (stereo not shown) [Example 9e, ethyl 3-methyl-8-isopropyl-2-azabicyclo-[2.2.2]octane-6-carboxylate] | – | – | 48 | – | 30 | – | –
3 | CC1CC2C(C(C)(C)O)CC1(C)C(C)N2Cc1ccccc1 (stereo not drawn) [Example 7, α,α,3,4,8-pentamethyl-2-(phenylmethyl)-2-azabicyclo[2.2.2]octane-6-methanol] | 59 | 6.06 | – | 6.11 | – | – | –
4 | CCOC(=O)C1(C(=O)OCC)CC2(C)C(C)CC1N(Cc1ccccc1)C2C (stereo not shown) [Example 2c, diethyl 3,4,8-trimethyl-2-(phenylmethyl)-2-azabicyclo-[2.2.2] octane-6,6-dicarboxylate] | 79 | 1.19 | 79 | 1.24 | – | – | –
5 | CCOC(=O)C1CC2C(C(C)C)CC1N(Cc1ccccc1)C2C (stereo not shown) [Example 9f, ethyl 3-methyl-8-(isopropyl)-2-(phenylmethyl)-2-azabicyclo[2.2.2]octane-6-carboxylate] | – | 0.141 | – | 0.0755 | – | 304 | 304
6 | CCOC(=O)C1CC23CCCCC2CC1N(Cc1ccccc1)C3C (stereo not shown) [Example 5e, Ethyl 2,3,4,4a,5,6,7,8-octahydro-1-methyl-2-(phenylmethyl)-1H-3,8a-ethanoisoquinoline-10-carboxylate hydrochloride] | – | 0.332 | – | 0.357 | 97 | – | –
7 | CCOC(=O)C1(SC)CC2(C)C(C)CC1N(C)C2C (stereo not shown) [Example 6, ethyl 2,3,4,8-tetramethyl-6-(methylthio)-2-azabicyclo[2.2.2]octane-6-carboxylate] | 63 | 5.95 | 75 | 2.71 | – | – | –
8 | CC(=O)C1(C)CC2(C)C(C)CC1N(Cc1ccccc1)C2C (stereo not shown) [Example 8b, 1-[3,4,6,8-tetramethyl-2-(phenylmethyl) -2-azabicyclo[2.2.2]oct-6-yl]ethanone] | 47 | 8.88 | 65 | 4.55 | – | – | –
9 | CC=C1CC2C(C(=O)OCC)CC1C(Cc1ccccc1)N2Cc1ccccc1 (stereo not shown) [Example 3e, ethyl 2,3-di(phenylmethyl)-8-ethylidene-2-azabicyclo-[2.2.2]octane-6-carboxylatetrihydrochloride hydrobromide] | 33 | – | 57 | – | – | – | –
10 | CCC1CC2C(C(C)(C)O)CC1C(Cc1ccccc1)N2C (stereo not drawn) [Example 4e, 3-(phenylmethyl)-8-ethyl-2,α,α-trimethyl-2-azabicyclo[2.2.2]octane-6-methanol] | 72 | 2.96 | 75 | 2.88 | – | – | –
11 | CCOC(=O)C1(C)CC2(C)C(C)CC1N(Cc1ccccc1)C2C (stereo not shown) [Example 8a, ethyl 2-(phenylmethyl)-3,4,6,8-tetramethyl-2-azabicyclo[2.2.2]octane-6-carboxylate] | – | 9.82 | 29 | 6.47 | – | – | –
12 | CCOC(=O)C1CC2(C)C(C)CC1N(Cc1ccccc1)C2C (stereo not shown) [Example 2b, ethyl 3,4,8-trimethyl-2-(phenylmethyl)-2-azabicyclo[2.2.2]octane-6-carboxylate] | – | 0.242 | – | 0.24 | – | 317 | 951
13 | CC1CC2C(CO)CC1(C)C(C)N2C (stereo not shown) [Example 10, 2,3,4,8-tetramethyl-2-azabicyclo[2.2.2]octane-6-methanol] | – | – | 48 | – | 24 | – | –
